Laboratory results: publication PMC11618052, “Design, synthesis, and antiproliferative activity of new 1,2,3-triazole/quinazoline-4-one hybrids as dual EGFR/BRAF^V600E inhibitors” (RSC Advances, 2024)

Tests used:
[1] = Cell viability MTT assay on MCF-10A normal cells; assay type: cell-based; conditions: human, MCF-10A normal mammary gland epithelial cells, MCF-10A cells, four days of incubation
Protocol: The viability of new compounds 8a–t was evaluated using the MCF-10A normal human mammary gland epithelial cell line. The cell viability of compounds 8a–t was examined using the MTT assay[36] after four days of incubation with MCF-10A cells. For more details, see Appendix A (ESI file). ^† […]
We evaluated the viability of new compounds 8a–t using the MCF-10A normal human mammary gland epithelial cell line. The cell viability of compounds 8a–t was examined using the MTT assay[36] after four days of incubation with MCF-10A cells.
4.2. Biological evaluation
4.2.1. Cytotoxic activity using MTT Assay and evaluation of IC 50
MTT assay was carried out to study the effect of compounds on mammary epithelial cells (MCF-10A). The medium in which cells were propagated contained Dulbecco's modified Eagle's medium (DMEM)/ Ham's F-12 medium (1:1) supplemented with epidermal growth factor (20 ng/mL), hydrocortisone (500 ng/mL), insulin (10 μg/mL), 2 mM glutamine and 10% foetal calf serum.
After every 2-3 days, the cells were passaged using trypsin ethylenediamine tetra acetic acid (EDTA). The cells were seeded at a density of 10^4 cells mL-1 in flat-bottomed culture plates containing 96 wells each. After 24 h, medium was removed from the plates and the compounds in (in 0.1% DMSO) were added (in 200 μL medium to yield a final concentration of 0.1% v/v) to the wells of plates. A single compound was designated with four wells followed by incubation of plates for 96h at 37°C. After incubation, medium was removed completely from the plates followed by addition of MTT (0.4 mg/mL in medium) to each well and subsequent incubation of plates for 3h. MTT (along with the medium) was removed and DMSO (150μL) was added to each well of the culture plates, followed by vortexing and subsequent measurement of absorbance (at 540 nm) using microplate reader. The data are shown as percentage inhibition of proliferation in comparison with controls containing 0.1% DMSO. […]

breast cancer (MCF-7) = test: Antiproliferative MTT assay, MCF-7; assay type: cell-based; conditions: Homo sapiens, MCF7, MCF-7 breast cancer cells, read-out: Antiproliferative activity IC50 ± SEM, MCF-7
Protocol: (§1) The median inhibitory concentration (IC50) and GI50 (mean IC50) for the four cancer cell lines were calculated. Appendix A ^† contains more details. […]

[2] = test system: pancreatic cancer (Panc-1); test: Antiproliferative MTT assay, Panc-1; assay type: cell-based; conditions: Homo sapiens, Panc-1 pancreatic cancer cells, read-out: Antiproliferative activity IC50 ± SEM, Panc-1
Protocol: as §1

colon cancer (HT-29) = test: Antiproliferative MTT assay, HT-29; assay type: cell-based; conditions: Homo sapiens, HT-29 colon cancer cells, read-out: Antiproliferative activity IC50 ± SEM, HT-29
Protocol: as §1

[3] = test system: four human cancer cell lines (A-549, MCF-7, Panc-1, HT-29); test: Antiproliferative MTT assay, mean over the four cancer cell lines; assay type: cell-based; conditions: Homo sapiens, mean IC50 over A-549, MCF-7, Panc-1, HT-29
Protocol: as §1

EGFR = target: T1, EGFR (Homo sapiens, UniProt P00533); test: EGFR-TK inhibitory assay; assay type: biochemical; conditions: read-out: EGFR inhibition IC50 ± SEM
T1 construct: 645–1186; His6 (N); made in house; host or cells: Sf-9 insect cells (baculovirus; pBlueBacHis2B / pFASTBacHTc)
T1 sequence (P00533 669-1210): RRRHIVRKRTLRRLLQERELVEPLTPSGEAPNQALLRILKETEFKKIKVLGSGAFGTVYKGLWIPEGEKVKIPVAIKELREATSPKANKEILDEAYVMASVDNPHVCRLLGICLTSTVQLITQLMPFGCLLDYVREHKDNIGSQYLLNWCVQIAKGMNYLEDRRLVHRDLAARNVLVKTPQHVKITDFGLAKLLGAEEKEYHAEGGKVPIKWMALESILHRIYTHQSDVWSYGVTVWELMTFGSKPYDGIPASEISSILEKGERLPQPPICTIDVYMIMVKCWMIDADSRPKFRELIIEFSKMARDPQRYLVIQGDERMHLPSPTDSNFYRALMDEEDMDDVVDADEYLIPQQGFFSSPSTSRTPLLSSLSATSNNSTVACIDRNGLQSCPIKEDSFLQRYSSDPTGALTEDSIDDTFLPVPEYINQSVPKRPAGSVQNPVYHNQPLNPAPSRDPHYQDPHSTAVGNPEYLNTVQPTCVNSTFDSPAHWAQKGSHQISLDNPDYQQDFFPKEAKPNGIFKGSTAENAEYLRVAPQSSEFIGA
Protocol: Sf-9 cells were infected for 72h for protein expression. […]
centrifugation for 20 min.
Histidine-linked proteins were first eluted with 250 and then […]
using wash buffer. Europium-tagged antiphosphotyrosine antibody (75 µL, 400 ng) was added to each well followed by incubation of 1h and then washing of the plates using buffer. The enhancement solution was added to each well and the signal was recorded at excitation and […]
The autophosphorylation percentage inhibition by compounds was calculated using the following equation: […]

A-549 cells [4] = test: Cell cycle analysis by flow cytometry in A-549; assay type: cell-based, human; conditions: A-549, IC50 concentration of 8g, 24 hours
From the text: (§2) The impact of compound 8g on cell cycle progression and apoptosis induction was examined in A-549 cells. […] We stained the cell line with PI/annexin V and performed flow cytometry using a BD FACS Caliber.[41] Refer to Appendix A ^† for more details.
The effects of 8g on cell cycle progression and apoptosis induction in A-549 cells were examined. […] We stained the cell line with PI/annexin V and performed flow cytometry using a BD FACS Caliber.[41] […] This means a cell cycle arrest at the G1 transition.

A-549 cells [5] = test: Apoptosis induction assay, annexin V/PI, in A-549; assay type: cell-based, human; conditions: A-549, annexin V/PI, 24 hours
Protocol: as §2
A-549 cells was stained with annexin V/PI, cultured for 24 hours, and analyzed them to examine 8g's capacity to cause apoptosis.
Avoid direct exposure to intense light. The point, at which the substrate reaction is stopped, is often determined by the ELISA reader. Many ELISA readers record absorbance only up to 2.0
O.D. Therefore, the color development within individual microwells must be watched by the person running the assay and the substrate reaction stopped before positive wells are no longer properly detectable. […] Results must be read immediately after the Stop Solution is added or within one hour if the microwell strips are stored at 2 - 8°C in the dark. Read absorbance of each microwell on a spectrophotometer using 450 nm as the primary wavelength. […]
Apoptosis was determined by flow cytometry based on the Annexin-V-fluoresce in isothiocyanate (FITC) and propidium iodide (PI) staining kit (BD Pharmingen, San Diego, USA).
(FITC) and propidium iodide (PI) staining kit (BD Pharmingen, San Diego, USA). […] Subsequently, cells were analyzed by flow cytometry (Becton Dickinson, Franklin Lakes, and USA).

BRAF^V600E = BRAF^V600E kinase inhibitory assay
BRAF^V600E, sequence (P28028 whole entry V585E): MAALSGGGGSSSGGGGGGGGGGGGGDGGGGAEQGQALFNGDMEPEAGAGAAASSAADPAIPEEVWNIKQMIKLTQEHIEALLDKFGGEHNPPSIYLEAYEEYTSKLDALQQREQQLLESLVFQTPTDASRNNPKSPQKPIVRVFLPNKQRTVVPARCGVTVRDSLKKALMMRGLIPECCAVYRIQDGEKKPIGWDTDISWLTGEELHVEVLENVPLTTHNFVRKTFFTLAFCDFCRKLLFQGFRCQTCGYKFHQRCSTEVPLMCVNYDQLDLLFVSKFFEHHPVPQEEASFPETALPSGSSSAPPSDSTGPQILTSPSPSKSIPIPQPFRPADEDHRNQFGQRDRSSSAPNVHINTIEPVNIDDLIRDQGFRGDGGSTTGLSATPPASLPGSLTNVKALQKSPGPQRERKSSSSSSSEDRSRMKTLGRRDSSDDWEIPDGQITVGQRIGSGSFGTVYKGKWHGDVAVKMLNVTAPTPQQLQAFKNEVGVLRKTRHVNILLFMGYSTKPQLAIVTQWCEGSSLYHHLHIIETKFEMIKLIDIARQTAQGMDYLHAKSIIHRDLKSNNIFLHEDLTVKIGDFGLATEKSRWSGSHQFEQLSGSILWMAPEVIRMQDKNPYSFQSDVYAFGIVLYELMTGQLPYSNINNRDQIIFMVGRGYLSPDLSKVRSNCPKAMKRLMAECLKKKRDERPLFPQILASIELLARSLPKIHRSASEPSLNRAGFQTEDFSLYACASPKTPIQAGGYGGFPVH
Protocol: V600E mutant BRAF kinase assay was performed to investigate the activity of tested compounds against BRAF. Mouse full-length GST-tagged BRAFV600E (7.5 ng, Invitrogen, PV3849) was pre-incubated with drug (1 µL) and assay dilution buffer (4 µL) for 60 min at 25 °C. In assay dilution buffer, a solution (5 µL) containing MgCl2 (30 mM), ATP (200 µM), recombinant human full length (200 ng) and N-terminal His-tagged MEK1 (Invitrogen) was added to start the assay, subsequent to incubation for 25 min at 25 °C. The assay was stopped using 5X protein denaturing buffer (LDS) solution (5 µL). To further denature the protein, heat (70° C) was applied for 5 min.
10 µL of each reaction was loaded into the precast plates and electrophoresis was allowed to proceed. After completion of electrophoresis, the front part of the precast gel plate (holding hot ATP) was cut and afterwards cast-off. The dried gel was developed using a phosphor screen. A

IC50 (breast cancer (MCF-7)) | IC50 [2] | IC50 (colon cancer (HT-29)) | GI50 [3] | IC50 (EGFR) | IC50 (BRAF^V600E) | Structure (SMILES) | viability at 4 days, 50 µM [1] | Cells in G0/G1 phase (%DIP G1) (A-549 cells [4]) | Necrosis percentage (A-549 cells [5])
20 ± 1 nM | 24 ± 1 nM | 24 ± 1 nM | 22 nM | 68 ± 4 nM | 47 ± 3 nM | COc1ccc(-n2cc(CSc3nc4ccccc4c(=O)n3-c3ccc(C)cc3)nn2)cc1 [Compound 8g, 2-(((1-(4-Methoxyphenyl)-1H-1,2,3-triazol-4-yl)methyl)thio)-3-(p-tolyl)quinazolin-4(3H)-one] | 88% | 86% | 4.39%
22 ± 1 nM | 26 ± 1 nM | 27 ± 1 nM | 25 nM | 74 ± 5 nM | 55 ± 5 nM | Cc1ccc(-n2cc(CSc3nc4ccccc4c(=O)n3-c3ccc(C)cc3)nn2)cc1 [Compound 8h, 2-(((1-(p-Tolyl)-1H-1,2,3-triazol-4-yl)methyl)thio)-3-(p-tolyl)quinazolin-4(3H)-one] | 92% |  | 
